According to patent publication US10010527B2, “Active metabolite of 1-[(2-bromophenyl)sulfonyl]-5-methoxy-3-[(4-methyl-1-piperazinyl)methyl]-1H-indole dimesylate monohydrate and dimesylate dihydrate salt of active metabolite” (SUVEN LIFE SCIENCES LIMITED, priority 2014, dated 2018):

Tested on: rats
Assay: Radial arm maze (reversal of scopolamine induced amnesia)
Assay type: in vivo, rat
Conditions: p.o.
From the text: Example 4: Radial Arm Maze
The cognition enhancing properties of formula (I) and formula (II) of this invention were estimated by using this model.
Radial arm maze consists of a central hub of 45 centimeter diameter. Each arm was of dimension 42.5×15×24 centimeter. The maze was elevated to a height of 1 meter above the ground. The animals were placed on a restricted diet until they reached approximately 85% of their free feeding weight. During this diet restriction period animals were habituated to the novel feed (pellets). Once the rats reached approximately 85% of their free feeding weight rats were habituated to the maze on the 1st and 2nd day. […] Animals were randomized on day 2. On the subsequent days the treatment was given as per the allotment. Each animal was introduced into the maze individually for a period of 10 minutes. The arms were baited only once and the animal had to learn the rule that repeated arm entries would not be rewarded. The trial ended once the rat had visited 16 arms or 10 minutes were over or all the pellets were eaten. The arm entries were recorded using the software.

| Structure (SMILES) | Reversal of Scopolamine Induced amnesia - Effective dose range (dimesylate dihydrate) | Reversal of Scopolamine Induced amnesia - Effective dose range |
| --- | --- | --- |
| COc1ccc2c(c1)c(CN1CCNCC1)cn2S(=O)(=O)c1ccccc1Br [Example 2, 1-[(2-Bromophenyl)sulfonyl]-5-methoxy-3-[(1-piperazinyl)methyl]-1H-indole dimesylate dihydrate] | 5-20 mg/kg, p.o. |  |
| COc1ccc2c(c1)c(CN1CCNCC1)cn2S(=O)(=O)c1ccccc1Br [Example 1, 1-[(2-Bromophenyl)sulfonyl]-5-methoxy-3-[(1-piperazinyl)methyl]-1H-indole] |  | 10-20 mg/kg, p.o. |
